Laboratory results as given in patent EP0316690A2, “Agent for the treatment of ischemic heart diseases” (Dr. Karl Thomae GmbH, priority 1987, dated 1989).

Legend:
[1] = test system: glattmuskuläre coronare Muscarinrezeptoren; assay: Isolated perfused Langendorff heart: antagonism of the carbachol effect on coronary flow (CF); parameters: species or system Wistar Ratten; conditions: for Coronarselektivität (Affinität für coronare vs. frequenzbeeinflussende M-Rezeptoren): comparison of CF and HR effects in the isolated rat heart; for pA₂-Werte Coronarflußeffekt CF: isolated rat heart, agonist Carbachol bolus 10⁻⁶ bis 10⁻²M, antagonist in perfusate, constant pressure 70 mm Hg
Procedure: (§1) Meßparameter sind Herzfrequenz und Coronarfluß.
(§2) Männliche Wistar Ratten mit einem Körpergewicht zwischen 300 und 350 g wurden mit Pentobarbital (70 mg/kg i.p.) anaesthe siert. […] Die Herzen wurden über die Aorta mit Krebs-Henseleit-Puffer (KHB) retograd bei einem konstanten Druck von 70 mm Hg perfundiert. Die Zusammensetzung des KHB betrug in mM: Kochsalz 114, Kaliumchlorid 4,7, Natriumbicarbonat 23,6, Kaliumdihydrogenphosphat 1,2, Magnesiumsulfat 1,1, Calziumchlorid 2,5. 11 mM Glucose wurden als Substrat beigefügt. Die Herzfrequenz (HR) wurde durch einen Tachographen (IFD, Mülheim) gemessen, der Coronarfluß (CF) wurde mittels eines elektromagnetischen Flowmeters (IFD, Mülheim) in Verbindung mit einer Sonde in dem zuführenden Teil der Aorta bestimmt.
(§3) Nach einer 15-minütigen Stabilisierungsphase in allen Experimenten wurde die erste Dosis-Wirkungs-Kurve erstellt. Dies geschah durch die Gabe von dem Fluß angepaßten Bolus-Injektionen (0,01 ml/10 ml CF) mit ansteigenden Dosierungen von Carbachol (10⁻⁶ bis 10⁻²M). Danach wurde die niedrigste Dosis des Antagonisten dem Perfusat beigegeben und die Dosis-Wirkungs-Kurve erneut aufgenommen. Darauffolgend gab man eine höhere Dosis des Antagonisten zu und es wurde der Einfluß von Carbachol auf den Coronarfluß (CF) und die Herzfrequenz (HF) erneut durch die Aufnahme von Dosis-Wirkungs-Kurven quantifiziert.

[2] = target: T1, frequenzbeeinflussende M-Rezeptoren (Rattus norvegicus, UniProt P10980); assay: Isolated perfused Langendorff heart: antagonism of the negative chronotropic carbachol effect on heart rate (HR/HF); parameters: species or system Wistar Ratten; conditions: isolated spontaneously beating rat heart, agonist Carbachol bolus 10⁻⁶ bis 10⁻²M, antagonist in perfusate; read-out: pA₂-Werte Herzfrequenz-Effekt HR (converted)
T1 construct: danach das Herz entnommen; from tissue; host or cells: isolated perfused Langendorff heart of male Wistar rats
T1 sequence (P10980 1-466): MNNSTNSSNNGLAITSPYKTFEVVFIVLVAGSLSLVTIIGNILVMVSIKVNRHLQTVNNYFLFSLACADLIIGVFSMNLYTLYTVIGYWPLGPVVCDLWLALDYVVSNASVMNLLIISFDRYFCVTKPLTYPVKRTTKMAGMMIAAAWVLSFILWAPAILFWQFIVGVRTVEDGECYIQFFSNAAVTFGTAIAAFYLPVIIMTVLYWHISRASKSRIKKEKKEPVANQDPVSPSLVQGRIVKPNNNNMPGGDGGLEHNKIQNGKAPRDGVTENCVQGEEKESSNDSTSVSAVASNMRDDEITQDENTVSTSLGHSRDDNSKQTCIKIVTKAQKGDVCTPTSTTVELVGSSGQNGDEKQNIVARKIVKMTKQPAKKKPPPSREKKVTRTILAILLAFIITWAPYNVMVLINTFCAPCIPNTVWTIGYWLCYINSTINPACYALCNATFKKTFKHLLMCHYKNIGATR
Procedure: as §1, §2, §3

SMILES | Coronarselektivität (Affinität für coronare vs. frequenzbeeinflussende M-Rezeptoren) [1] | pA₂-Werte Coronarflußeffekt CF [1] | Kb [2] [nM] | Kb ([1]; read-out: pA₂-Werte Coronarflußeffekt CF (converted)) [nM]
CN1CCC(CC(=O)N2c3ccccc3C(=O)Nc3cccc(Cl)c32)CC1 (racemic) [Substanz I, 6-Chlor-5,10-dihydro-5-[(1-methyl-4-piperidinyl)acetyl]-11H-dibenzo[b,e][1,4]diazepin-11-on] | höhere Affinität für coronare als für frequenzbeeinflussende M-Rezeptoren | 7,9 ± 0,2 | 50.1 | –
CN1C2CCC1CC(OC(=O)C(CO)c1ccccc1)C2 (racemic) [Atropin, reference compound] | – | – | – | 0.631
CN1CCC(CC(=O)N2c3ccccc3C(=O)Nc3cccc(Cl)c32)CC1 (single isomer, unassigned) [Substanz II, (+)-6-Chlor-5,10-dihydro-5-[(1-methyl-4-piperidinyl)acetyl]-11H-dibenzo[b,e][1,4]diazepin-11-on] | höhere Affinität für coronare als für frequenzbeeinflussende M-Rezeptoren | 8,2 ± 0,1 | 31.6 | –
